Paper PMC11847724 (Neoplasia (New York, N.Y.), 2025)

How the values were obtained:
[1] = Plasma pharmacokinetics of ESK-440 and metabolite CEP-38901; format: in vivo, human
ALK = details: preclinical studies ref 9, 10; cited from earlier work
[2] = tested on: ALK- and FAK-driven xenograft models; details: multiple ALK- and FAK-driven xenograft models ref 9, 10; cited from earlier work
[3] = all tested species ref 9; cited from earlier work

Question: What does the source list for `CNC(=O)c1ccccc1Nc1nc(Nc2ccc3c(c2OC)CCC[C@H](N2CCN(CCO)CC2)C3)ncc1Cl` [ESK-440]?
Answer: Robs (observed accumulation ratio = AUCτ on day 15/AUC0-24 on day 1) ([1]; 25 mg/day (N = 3)): 3.3 (0.76); Robs (observed accumulation ratio = AUCτ on day 15/AUC0-24 on day 1) ([1]; 50 mg/day (N = 3)): 2.2 (1.11); Robs (observed accumulation ratio = AUCτ on day 15/AUC0-24 on day 1) ([1]; 100 mg/day (N = 3)): 4.2 (3.47); Robs (observed accumulation ratio = AUCτ on day 15/AUC0-24 on day 1) ([1]; 150 mg/day (N = 3)): 3.1 (0.17); Robs (observed accumulation ratio = AUCτ on day 15/AUC0-24 on day 1) ([1]; 250 mg/day (N = 4)): 2.9 (0.81); Robs (observed accumulation ratio = AUCτ on day 15/AUC0-24 on day 1) ([1]; 350 mg/day (N = 4)): 3.3 (0.63); Robs (observed accumulation ratio = AUCτ on day 15/AUC0-24 on day 1) ([1]; 500 mg/day (N = 4)): 2.4 (0.43); Robs (observed accumulation ratio = AUCτ on day 15/AUC0-24 on day 1) ([1]; 700 mg/day (N = 5)): 2.2 (0.74); dose dependence of Cmax and AUC0-24 ([1]; day 1 and day 15, up to 500 mg/day): dose-proportional; half-life ([1]; human, plasma, oral): 9.4 to 20.8 h; AUC ([1]; human, plasma, oral, 25 mg/day): 666 ng·h/mL; AUC(0-t) ([1]; human, plasma, oral, 25 mg/day, AUC0-24, Day 1, 25 mg/day (N = 3)): 222 ng·h/mL; AUC(0-t) ([1]; human, plasma, oral, 25 mg/day, AUC0-t, Day 1, 25 mg/day (N = 3)): 223 ng·h/mL; AUC(0-t) ([1]; human, plasma, oral, 25 mg/day, AUC0-t, Day 15, 25 mg/day (N = 3)): 666 ng·h/mL; Cmax ([1]; human, plasma, oral, 25 mg/day, Day 1, 25 mg/day (N = 3)): 20.7 ng/mL; Cmax ([1]; human, plasma, oral, 25 mg/day, Day 15, 25 mg/day (N = 3)): 36.7 ng/mL; Tmax ([1]; human, plasma, oral, 25 mg/day, tmax, Day 1, 25 mg/day (N = 3), median (range)): 3 h; Tmax ([1]; human, plasma, oral, 25 mg/day, tmax, Day 15, 25 mg/day (N = 3), median (range)): 3 h; AUC ([1]; human, plasma, oral, 50 mg/day): 995 ng·h/mL; AUC(0-t) ([1]; human, plasma, oral, 50 mg/day, AUC0-24, Day 1, 50 mg/day (N = 3)): 508 ng·h/mL; AUC(0-t) ([1]; human, plasma, oral, 50 mg/day, AUC0-t, Day 1, 50 mg/day (N = 3)): 517 ng·h/mL; AUC(0-t) ([1]; human, plasma, oral, 50 mg/day, AUC0-t, Day 15, 50 mg/day (N = 3)): 1020 ng·h/mL; Cmax ([1]; human, plasma, oral, 50 mg/day, Day 1, 50 mg/day (N = 3)): 38.1 ng/mL; Cmax ([1]; human, plasma, oral, 50 mg/day, Day 15, 50 mg/day (N = 3)): 55.6 ng/mL; Tmax ([1]; human, plasma, oral, 50 mg/day, tmax, Day 1, 50 mg/day (N = 3), median (range)): 3 h; Tmax ([1]; human, plasma, oral, 50 mg/day, tmax, Day 15, 50 mg/day (N = 3), median (range)): 3.9 h; AUC ([1]; human, plasma, oral, 100 mg/day): 5420 ng·h/mL; AUC(0-t) ([1]; human, plasma, oral, 100 mg/day, AUC0-24, Day 1, 100 mg/day (N = 3)): 1480 ng·h/mL; AUC(0-t) ([1]; human, plasma, oral, 100 mg/day, AUC0-t, Day 1, 100 mg/day (N = 3)): 1540 ng·h/mL; AUC(0-t) ([1]; human, plasma, oral, 100 mg/day, AUC0-t, Day 15, 100 mg/day (N = 3)): 5660 ng·h/mL; Cmax ([1]; human, plasma, oral, 100 mg/day, Day 1, 100 mg/day (N = 3)): 97.3 ng/mL; Cmax ([1]; human, plasma, oral, 100 mg/day, Day 15, 100 mg/day (N = 3)): 273 ng/mL; Tmax ([1]; human, plasma, oral, 100 mg/day, tmax, Day 1, 100 mg/day (N = 3), median (range)): 2 h; Tmax ([1]; human, plasma, oral, 100 mg/day, tmax, Day 15, 100 mg/day (N = 3), median (range)): 4 h; AUC ([1]; human, plasma, oral, 150 mg/day): 4980 ng·h/mL; AUC(0-t) ([1]; human, plasma, oral, 150 mg/day, AUC0-24, Day 1, 150 mg/day (N = 3)): 1580 ng·h/mL; AUC(0-t) ([1]; human, plasma, oral, 150 mg/day, AUC0-t, Day 1, 150 mg/day (N = 3)): 1560 ng·h/mL; AUC(0-t) ([1]; human, plasma, oral, 150 mg/day, AUC0-t, Day 15, 150 mg/day (N = 3)): 4950 ng·h/mL; Cmax ([1]; human, plasma, oral, 150 mg/day, Day 1, 150 mg/day (N = 3)): 128 ng/mL; Cmax ([1]; human, plasma, oral, 150 mg/day, Day 15, 150 mg/day (N = 3)): 321 ng/mL; Tmax ([1]; human, plasma, oral, 150 mg/day, tmax, Day 1, 150 mg/day (N = 3), median (range)): 3.1 h; Tmax ([1]; human, plasma, oral, 150 mg/day, tmax, Day 15, 150 mg/day (N = 3), median (range)): 2.1 h; AUC ([1]; human, plasma, oral, 250 mg/day): 13300 ng·h/mL; AUC(0-t) ([1]; human, plasma, oral, 250 mg/day, AUC0-24, Day 1, 250 mg/day (N = 4)): 4740 ng·h/mL; AUC(0-t) ([1]; human, plasma, oral, 250 mg/day, AUC0-t, Day 1, 250 mg/day (N = 4)): 4850 ng·h/mL; AUC(0-t) ([1]; human, plasma, oral, 250 mg/day, AUC0-t, Day 15, 250 mg/day (N = 4)): 14200 ng·h/mL; Cmax ([1]; human, plasma, oral, 250 mg/day, Day 1, 250 mg/day (N = 4)): 435 ng/mL; Cmax ([1]; human, plasma, oral, 250 mg/day, Day 15, 250 mg/day (N = 4)): 732 ng/mL; Tmax ([1]; human, plasma, oral, 250 mg/day, tmax, Day 1, 250 mg/day (N = 4), median (range)): 3.5 h; Tmax ([1]; human, plasma, oral, 250 mg/day, tmax, Day 15, 250 mg/day (N = 4), median (range)): 3.5 h; AUC ([1]; human, plasma, oral, 350 mg/day): 16800 ng·h/mL; AUC(0-t) ([1]; human, plasma, oral, 350 mg/day, AUC0-24, Day 1, 350 mg/day (N = 4)): 5180 ng·h/mL; AUC(0-t) ([1]; human, plasma, oral, 350 mg/day, AUC0-t, Day 1, 350 mg/day (N = 4)): 5320 ng·h/mL; AUC(0-t) ([1]; human, plasma, oral, 350 mg/day, AUC0-t, Day 15, 350 mg/day (N = 4)): 17900 ng·h/mL; Cmax ([1]; human, plasma, oral, 350 mg/day, Day 1, 350 mg/day (N = 4)): 334 ng/mL; Cmax ([1]; human, plasma, oral, 350 mg/day, Day 15, 350 mg/day (N = 4)): 869 ng/mL; Tmax ([1]; human, plasma, oral, 350 mg/day, tmax, Day 1, 350 mg/day (N = 4), median (range)): 5 h; Tmax ([1]; human, plasma, oral, 350 mg/day, tmax, Day 15, 350 mg/day (N = 4), median (range)): 4 h; AUC ([1]; human, plasma, oral, 500 mg/day): 36500 ng·h/mL; AUC(0-t) ([1]; human, plasma, oral, 500 mg/day, AUC0-24, Day 1, 500 mg/day (N = 5)): 17700 ng·h/mL; AUC(0-t) ([1]; human, plasma, oral, 500 mg/day, AUC0-t, Day 1, 500 mg/day (N = 5)): 17800 ng·h/mL; AUC(0-t) ([1]; human, plasma, oral, 500 mg/day, AUC0-t, Day 15, 500 mg/day (N = 4)): 37600 ng·h/mL; Cmax ([1]; human, plasma, oral, 500 mg/day, Day 1, 500 mg/day (N = 5)): 1160 ng/mL; Cmax ([1]; human, plasma, oral, 500 mg/day, Day 15, 500 mg/day (N = 4)): 1910 ng/mL; Tmax ([1]; human, plasma, oral, 500 mg/day, tmax, Day 1, 500 mg/day (N = 5), median (range)): 4.1 h; Tmax ([1]; human, plasma, oral, 500 mg/day, tmax, Day 15, 500 mg/day (N = 4), median (range)): 6.8 h; AUC ([1]; human, plasma, oral, 700 mg/day): 25700 ng·h/mL; AUC(0-t) ([1]; human, plasma, oral, 700 mg/day, AUC0-24, Day 1, 700 mg/day (N = 5)): 11300 ng·h/mL; AUC(0-t) ([1]; human, plasma, oral, 700 mg/day, AUC0-t, Day 1, 700 mg/day (N = 5)): 11500 ng·h/mL; AUC(0-t) ([1]; human, plasma, oral, 700 mg/day, AUC0-t, Day 15, 700 mg/day (N = 5)): 25900 ng·h/mL; Cmax ([1]; human, plasma, oral, 700 mg/day, Day 1, 700 mg/day (N = 5)): 839 ng/mL; Cmax ([1]; human, plasma, oral, 700 mg/day, Day 15, 700 mg/day (N = 5)): 1310 ng/mL; Tmax ([1]; human, plasma, oral, 700 mg/day, tmax, Day 1, 700 mg/day (N = 5), median (range)): 4 h; Tmax ([1]; human, plasma, oral, 700 mg/day, tmax, Day 15, 700 mg/day (N = 5), median (range)): 6.1 h; Tmax ([1]; human, plasma, oral, median tmax, range across dose levels, day 1): 2 to 5 h; Tmax ([1]; human, plasma, oral, median tmax, range across dose levels, day 15): 2.1 to 6.8 h; potency (ALK): low nanomolar; antitumor efficacy [2]: dose-dependent antitumor efficacy; oral bioavailability [3]: acceptable
